Test results: patent US11407792B2, “Regulating electron flow using fragmented proteins” (WILLIAM MARSH RICE UNIVERSITY, priority 2017, dated 2022)

Experiments:
sFd-35-ER = assay: Complementation of E. coli EW11 growth by sFd-35-ER with 4-HT and other estrogen receptor modulators; assay type: cell-based, Escherichia coli; details: for Activation of sFd-35-ER ET (growth complementation): agonists, antagonists and an endocrine disruptor; for Effect of estrogen receptor modulators on complementation of E. coli EW11 by sFd-35-ER, compared to DMSO alone: modulator 50 μM, 200 ng/mL aTc
Procedure: Growth assay. For all growth experiments, E. coli EW11 were freshly transformed with two plasmids, one encoding the e-donor and acceptor pair (FNR and SIR) and the other encoding either a native Fd, a C42A mutant of Ml Fd that is unable to coordinate a 2Fe-2S cluster, or an engineered Fd. Starter cultures were inoculated using single colonies obtained by selecting for colonies containing both plasmids on LB-agar plates. These starter cultures were grown in deep-well 96-well plates for 18 hours at 37° C. in 1 mL of a non-selective modified M9 medium (M9c), which contained sodium phosphate, dibasic (6.8 g/L), sodium phosphate, monobasic (3 g/L), sodium chloride (0.5 g/L), ammonium chloride (1 g/L), calcium chloride (0.1 mM), magnesium sulfate (10 mM), ferric citrate (24 mg/L), p-aminobenzoic acid (2 mg/L), inositol (20 mg/L), adenine (5 mg/L), uracil (20 mg/L), tryptophan (40 mg/L), tyrosine (1.2 mg/L), and the remaining 18 amino acids (80 mg/L each). For auxotroph complementation analysis, starter cultures that had been grown to stationary phase in M9c were diluted ˜1:100 using a 96-well replicator pin into 100 μL of a selective modified M9 medium (M9sa), which is identical to M9c but lacks cysteine and methionine. […] Optical density (OD) measurements were taken every 10 minutes. To select for the Fd and e-donor/acceptor plasmids, all growth steps included chloramphenicol and streptomycin at 34 μg/mL and 100 μg/mL, respectively.
To test whether this domain-insertion strategy can be used to diversify the chemical regulation of sFd-35, the ligand-binding domain (LBD) of the human estrogen receptor (ER) was inserted after residue 35 to create sFd-35-ER (FIG. 26E).
The activity of sFd-35-ER was evaluated by expressing this protein using an aTc-inducible promoter (FIG. 31B). […] This protein was also expressed as a fusion to RFP (sFd-35-ER-RFP) to evaluate how 4-HT affects protein expression.
To evaluate how these different modulators affect sFd-35-ER ET, sFd-35-ER growth complementation was evaluated in the presence of agonists, antagonists, and an endocrine disruptor (FIG. 32D).

[1] = system: lysates derived from E. coli EW11 expressing FNR and SIR; assay: Sulfide production assay in cell lysates (sulfidefluor-7 fluorescence); assay type: biochemical, Escherichia coli; details: y=0.7×+12.252, r^2=0.983
Procedure: Cell lysates. Electrocompetent E. coli EW11 were transformed with the plasmid (pSAC01) that constitutively expresses Zea mays FNR and SIR. Cells were grown to stationary phase at 37° C. and 250 rpm in 2×YTPG medium (16 g/L tryptone, 10 g/L yeast extract, 5 g/L NaCl, 3 g/L KH2PO4, 7 g/L K2HPO4, and 18 g/L glucose) containing 100 μg/mL streptomycin. Cells from overnight cultures were diluted 1:100 in fresh 2×YTPG medium containing streptomycin, grown for 2 hours at 37° C. while shaking at 250 rpm until mid-log phase, and then shifted to 30° C. and grown for an additional 4 hours. […] Protein content in lysates was quantified using Bio-Rad Protein Assay Dye Reagent Concentrate (Bio-Rad), using bovine serum albumin (NEB) as a standard.
Sulfide production assay. […] Following NADPH or protein addition, reactions were arrayed in a Corning 96 well plate at room temperature (Cost ar #3603), transferred to an Infinite m1000 Pro plate reader (Tecan), and heated to 37° C. and shaken at 250 rpm with fluorescence readings (λex=495 nm, λem=520 nm) every 15 seconds. […]
SIR activity was monitored in desalted cell lysates using sulfidefluor-7 (Lin et al., 2013), a fluorescent probe for hydrogen sulfide. […]

[2] = Midpoint potentials by protein film (square wave) voltammetry; assay type: physicochemical; details: relative to standard hydrogen electrode, pH 7.0, 23.5° C.
Procedure: Midpoint potentials. Electrochemical experiments were carried out anaerobically in a MBraun Labmaster glovebox using a PGSTAT12 potentiostat. A three-electrode configuration was used in a water-jacketed glass cell. A platinum wire was used as the counter electrode and a standard calomel electrode was used as the reference electrode. Reported potentials are relative to the standard hydrogen electrode. Baseline measurements were collected using an edge-plane graphite (EPG) electrode that was modified with a 100 mM neomycin trisulfate solution, rinsed, and placed into a glass cell containing a 23.5° C. mixed buffer solution (5 mM acetate/MES/MOPS/TAPS/CHES/CAPS) pH 7.0, with 100 mM NaCl. A 5 μL aliquot of 720 μM Ml-Fd or 5 mM sFd-35-ER was applied directly to the electrode surface with or without 1 μL of 50 mM 4-HT, the protein was allowed to […] for approximately one minute at room temperature before being placed into the buffer cell solution. Square wave voltammograms were collected at 23.5° C. with a frequency of 10 Hz and electrochemical signals were analyzed using QSoas.
To investigate if domain insertion affects the reduction potential of Ml-Fd, Ml-Fd and sFd-35-ER were characterized using protein film voltammetry. In the absence of 4-HT, the midpoint potentials of both Ml-Fd and sFd-35-ER (FIG. 27C) were −336 and −320 mV, respectively. […]

[3] = Fish et al., 2005; cited from earlier work
E. coli EW11 = E. coli EW11 growth complementation by native, split or engineered Fds; assay type: cell-based, Escherichia coli; details: after 24 hours; Fd expressed from an aTc-inducible promoter, FNR and SIR constitutive
Procedure: Growth assay. […] Optical density (OD) measurements were taken every 10 minutes.
To rapidly assay ET mediated by engineered Fds, an Escherichia coli sulfide auxotroph (EW11; Barstow et al., 2011), which cannot grow in minimal medium containing sulfate as a sulfur source unless it expresses a synthetic ET chain consisting of a Fd-NADP+ reductase (FNR) electron donor, a Fd electron carrier, and a Fd-dependent sulfite reductase (SIR) electron acceptor, was used (FIG. 25A). Endogenous oxidoreductases were systematically removed from the genome of this strain to insulate Fd-dependent redox pathways from native redox reactions (Barstow et al., 2011). To evaluate Fd ET, Zea mays FNR and SIR were constitutively expressed and a TetR-repressible promoter was used to control the expression of plant-type 2Fe-2S Fds. […]
With this expression strategy, the inventors can quickly assess which split Fds require two fragments to function in complementation assays by assessing growth in the presence and absence of both inducers because growth depended upon the level of anhydrotetracycline (aTc) (FIG. 25B), and thus, the amount of Fd available to mediate ET. […] For these experiments, they assessed split Fd function in the presence of a constant high concentration of aTc, and varying concentrations of IPTG, which selectively drive the distinct promoters. […]

[4] = Hirasawa et al., 2004; cited from earlier work

Oc1ccc2c(c1)CC[C@H](c1ccccc1)[C@@H]2c1ccc(OCCN2CCCC2)cc1 [lasoxifene]
Activation of sFd-35-ER ET (growth complementation) (sFd-35-ER): activated
Effect of estrogen receptor modulators on complementation of E. coli EW11 by sFd-35-ER, compared to DMSO alone (sFd-35-ER): significantly enhance growth

CC(C)(c1ccc(O)cc1)c1ccc(O)cc1 [bisphenol-A]
Activation of sFd-35-ER ET (growth complementation) (sFd-35-ER): activated
Effect of estrogen receptor modulators on complementation of E. coli EW11 by sFd-35-ER, compared to DMSO alone (sFd-35-ER): significantly enhance growth

Ml-Fd: Thermostable plant-type 2Fe-2S ferredoxin of Mastigocladus laminosus, UniProt P00248, SEQ ID NO: 11
rate of SF7 fluorescence with increasing concentrations of Ml-Fd [1]: linearly increasing rate
midpoint potential ([2]; absence of 4-HT): −336 mV
midpoint potential ([2]; presence of 4-HT): −330 mV
temperature of optimal ET [3]: 65 °C
k1/2, growth complementation as a function of aTc (E. coli EW11): 1.8 ng/mL aTc

CC[C@H](c1ccc(O)cc1)[C@@H](CC)c1ccc(O)cc1 [hexestrol]
Activation of sFd-35-ER ET (growth complementation) (sFd-35-ER): not activated
Effect of estrogen receptor modulators on complementation of E. coli EW11 by sFd-35-ER, compared to DMSO alone (sFd-35-ER): do not significantly enhance growth

B1: SIR: Zea mays Fd-dependent sulfite reductase, electron acceptor (protein, UniProt O23813 51-635, looked up)
Sulfite reductase …: VSAPAKKDASEVKRSKVEIIKEKSNFLRYPLNEELVSEAPNINESAVQLIKFHGSYQQTDRDVRGQKNYSFMLRTKNPCGKVPNQLYLAMDTLADEFGIGTLRLTTRQTFQLHGVLKKNLKTVLSTVIKNMGSTLGACGDLNRNVLAPAAPYVKKDILFAQQTAENIAALLTPQSGAYYDLWVDGEKIMSAEEPPEVTKARNDNSHGTNFPDSPEPIYGTQYLPRKFKVAVTAAGDNSVDILTNDIGVVVVSDDAGEPIGFNIYVGGGMGRTHRVETTFPRLADPLGYVPKEDILYAIKAIVVTQRENGRRDDRKYSRMKYMIDRWGIDRFRAEVEKYYGKKFESFRPLPEWQFNSYLGWQEQGDGKLFYGVHVDNGRVGGQAKKTLREIIEKYNLDVSITPNQNLILCGIDQAWREPITTALAQAGLLEPKDVDPLNLTAMACPALPLCPLAQTEAERGILPILKRIRAVFNKVGIKDSESVVVRITGCPNGCARPYMAELGFVGDGPKSYQIWLGGTPNQSTLAESFMDKVKLDDIEKVLEPLFTYWNGTRQEGESFGSFTNRTGFDKLKEVVNKWAESPSAA
[4Fe-4S] E° [4]: −415 mV
siroheme potential [4]: −285 mV
